{
  "source": "paper PMC6790247",
  "about": "(Journal of Insect Science, 2019)",
  "assay_type_in_all_cases": "biochemical",
  "key": {"[1]": {"biological_target": "T1, nlGSTE (Nilaparvata lugens, UniProt J9Q4G5, F119A)", "T1 sequence (J9Q4G5 1-217 F119A)": "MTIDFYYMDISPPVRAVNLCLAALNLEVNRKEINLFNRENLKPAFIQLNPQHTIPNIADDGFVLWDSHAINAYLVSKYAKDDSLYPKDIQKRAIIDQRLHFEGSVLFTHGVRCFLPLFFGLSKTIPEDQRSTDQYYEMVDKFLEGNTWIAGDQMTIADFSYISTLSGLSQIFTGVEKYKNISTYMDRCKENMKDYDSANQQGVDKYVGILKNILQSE", "assay": "spectrophotometry at […] nm, double-reciprocal plot", "conditions": "read-out: F119A; 5 mM GSH, 20 mM Tris-HCl pH 8.0, 30 °C"}, "[2]": {"biological_target": "T2, nlGSTE (Nilaparvata lugens, UniProt J9Q4G5, F107A)", "T2 sequence (J9Q4G5 1-217 F107A)": "T1 sequence (J9Q4G5 1-217 F119A)", "assay": "spectrophotometry at […] nm, double-reciprocal plot", "conditions": "read-out: F107A; 5 mM GSH, 20 mM Tris-HCl pH 8.0, 30 °C"}, "[3]": {"biological_target": "T3, nlGSTE (Nilaparvata lugens, UniProt J9Q4G5, F118L)", "T3 sequence (J9Q4G5 1-217 F118L)": "T1 sequence (J9Q4G5 1-217 F119A)", "assay": "spectrophotometry at […] nm, double-reciprocal plot", "conditions": "read-out: F118L; 5 mM GSH, 20 mM Tris-HCl pH 8.0, 30 °C"}, "[4]": {"biological_target": "T4, nlGSTE (Nilaparvata lugens, UniProt J9Q4G5, R112A)", "T4 sequence (J9Q4G5 1-217 R112A)": "T1 sequence (J9Q4G5 1-217 F119A)", "assay": "spectrophotometry at […] nm, double-reciprocal plot", "conditions": "read-out: R112A; 5 mM GSH, 20 mM Tris-HCl pH 8.0, 30 °C"}, "[5]": {"biological_target": "T5, nlGSTE (Nilaparvata lugens, UniProt J9Q4G5)", "T5 sequence (J9Q4G5 1-217)": "T1 sequence (J9Q4G5 1-217 F119A)", "assay": "spectrophotometry at […] nm, double-reciprocal plot", "conditions": "read-out: WT; 5 mM GSH, 20 mM Tris-HCl pH 8.0, 30 °C"}, "[6]": {"biological_target": "T5, nlGSTE", "assay": "inhibition of CDNB conjugation, spectrophotometry", "conditions": "read-out: % remaining activity at 0.1 mM"}, "[7]": {"biological_target": "T5, nlGSTE", "assay": "inhibition of CDNB conjugation, spectrophotometry", "conditions": "substrates CDNB and GSH; several inhibitor concentrations"}},
  "data": [
    {"molecule": "O=[N+]([O-])c1ccc(Cl)c([N+](=O)[O-])c1", "note": "[CDNB, 1-chloro-2,4-dinitrobenzene]", "values": [
      {"measurement": "Km", "setting": "[1]", "value": "5 ± 0.575", "unit": "mM"},
      {"measurement": "Km", "setting": "[2]", "value": "3.1 ± 0.367", "unit": "mM"},
      {"measurement": "Km", "setting": "[3]", "value": "4.2 ± 0.865", "unit": "mM"},
      {"measurement": "Km", "setting": "[4]", "value": "8.7 ± 0.666", "unit": "mM"},
      {"measurement": "Km", "setting": "[5]", "value": "2.1 ± 0.165", "unit": "mM"}
    ]},
    {"molecule": "CNC(=O)Oc1cccc2c1OC(C)(C)O2", "note": "[bendiocarb]", "values": [
      {"measurement": "remaining activity at 100 µM", "setting": "[6]", "value": 36, "unit": "%"}
    ]},
    {"molecule": "CCOCn1c(-c2ccc(Cl)cc2)c(C#N)c(Br)c1C(F)(F)F", "note": "[chlorfenapyr]", "values": [
      {"measurement": "remaining activity at 100 µM", "setting": "[6]", "value": 84, "unit": "%"}
    ]},
    {"molecule": "CCOP(=S)(OCC)Oc1cc(C)nc(C(C)C)n1", "note": "[diazinon]", "values": [
      {"measurement": "remaining activity", "setting": "[7]", "value": "nlGSTE activity was affected by permethrin, bendiocarb, diazinon, and chlorfenapyr"}
    ]},
    {"molecule": "CC1(C)C(C=C(Cl)Cl)C1C(=O)OCc1cccc(Oc2ccccc2)c1", "note": "(stereo not drawn) [permethrin]", "values": [
      {"measurement": "remaining activity", "setting": "[7]", "value": "nlGSTE activity was affected by permethrin, bendiocarb, diazinon, and chlorfenapyr"}
    ]}
  ]
}
